Patent US20070010518A1, “Method for administering levosimendan” (priority 2005, published 2007)

Columns and labels:
Format in all cases: in vivo, human
[1] = system: patients with New York Heart Association functional class II to III heart failure; test: Doppler echocardiographic hemodynamic measurements in double-blind, placebo-controlled study
Description: (§1) A double-blind, placebo-controlled, parallel group, single center study in patients with New York Heart Association functional class II to III heart failure was conducted. Patients were randomised in 1:1 ratio to receive either levosimendan or placebo. Study drug administration was initiated with a loading dose of 12 μg/kg of levosimendan or placebo delivered over 10 minutes. This was followed by a continuous infusion of 0.1 μg/kg/min for 50 minutes. If the dose was well tolerated the infusion rate was increased to 0.2 μg/kg/min for a further 23 hours. After the study drug was started, the hemodynamic assessments were repeated at 30 minutes, at two and six hours. The non-invasive hemodynamic assessments were repeated at 24-hours. Follow-up visits took place at 2, 3, 5, 7, 9 and 14 days from the beginning of the study. On these visits echocardiographic measurements were performed and blood pressure and heart rate were measured.
An Acuson Sequoia ultrasound system with 2.5-3.75 MHz probes was used for the Doppler echocardiographic measurements. Blood flow velocity curves were recorded at a sweep speed of 100 mm/s. Left ventricular ejection fraction was assessed by two-dimensional apical two- and four-chamber views with use of modified Simpson rule. Mitral flow velocity was assessed by pulsed wave Doppler from the apical four-chamber view by placing a 3-mm sample volume between the tip of the mitral leaflets in diastole. The following measurements were made over five consecutive cycles: maximal early and maximal late diastolic velocity and their ratio, duration of the late diastolic velocity wave, deceleration time and deceleration rate of early diastolic velocity. Peak velocities were defined as the highest point of the spectrum.

[2] = system: patients with New York Heart Association functional class II to III heart failure; test: Invasive hemodynamic assessments in double-blind, placebo-controlled study
Description: as §1

[3] = system: patients with New York Heart Association functional class II to III heart failure; test: Plasma natriuretic peptide (NT-proANP, NT-proBNP) measurements in double-blind, placebo-controlled study
Description: as §1
Blood samples (4 ml) for natriuretic peptide (NT-proANP, NT-proBNP) measurements were taken into pre-cooled EDTA tubes. Samples were taken at baseline (0-sample) and on the first study day 30 min, 2 h, 6h and 24 h after the start of the infusion and in the mornings of days 2, 3, 5, 7, 9 and 14 after the start of the study drug infusion.

[4] = after starting the 24-hour infusion
[5] = echocardiography, 24-hour infusion
[6] = after start of 24-hour infusion

For `C[C@@H]1CC(=O)NN=C1c1ccc(NN=C(C#N)C#N)cc1` [levosimendan, (−)-enantiomer of [[4-(1,4,5,6-tetrahydro-4-methyl-6-oxo-3-pyridazinyl)phenyl]hydrazono]propanedinitrile], the “Maintenance of beneficial hemodynamic and neurohormonal effects” value ([1]; after levosimendan administration (24-hour infusion)) was “maintained up to two weeks”, the “Time at which echocardiographically estimated PCWP reached its lowest value” [1, 4] was 2 days and the “Time of maximal effects on hemodynamic parameters” value [1, 4] was 1 to 3 days. The “Linearly estimated duration of an increase in CO” value [1, 5] was 13 days, the “Linearly estimated duration of the decrease in PCWP” value [1, 5] was 9 days and the “Time at which highest CO value estimated by echocardiography was detected” value ([1]; end of the 24-hour infusion) was 24 h. The “Invasively measured cardiac output (CO)” value ([2]; at six hours, loading dose 12 μg/kg, then infusion 0.1-0.2 μg/kg/min) was 5.4 L/min, the “Invasively measured cardiac output (CO)” value ([2]; baseline, levosimendan group) was 4.3 L/min and the PCWP ([2]; baseline, levosimendan treatment) was 20 mmHg. For the same molecule, the PCWP ([2]; in response to levosimendan treatment, loading dose 12 μg/kg, then infusion 0.1-0.2 μg/kg/min) was 15 mmHg, the “Duration of treatment effect on plasma NT-proANP estimated by a linear model” value ([3]; 24-hour infusion) was 16 days and the “Duration of treatment effect on plasma NT-proBNP estimated by a linear model” value ([3]; 24-hour infusion) was 12 days. For the same molecule, the “Day at which plasma NT-proANP level reached its lowest value” [3, 6] was 3 days and the “Day at which plasma NT-proBNP level reached its lowest value” [3, 6] was 2 days.
